Laboratory results reported in patent publication US6664253B2, “Neurokinin antagonists” (Boehringer Ingelheim Pharma KG, priority 2000, dated 2003).

Target: T1, NK1-receptor (substance P-receptor) (Homo sapiens, UniProt P25103)
T1 construct: expressed in transfected cells; host or cells: IM-9 human lymphoblastoma cells
Experiment: NK1-receptor affinity, displacement of 125I-labelled substance P on IM-9 cells
Assay type: binding
Settings: human lymphoblastoma cells (IM-9) with cloned NK1-receptors
Method: The receptor affinity to the NK1-receptor (substance P-receptor) is determined on human lymphoblastoma cells (IM-9) with cloned NK1-receptors, by measuring the displacement of ^125I-labelled substance P. The Ki-values thus obtained show the efficacy of the compounds.

T1 sequence (P25103 whole entry): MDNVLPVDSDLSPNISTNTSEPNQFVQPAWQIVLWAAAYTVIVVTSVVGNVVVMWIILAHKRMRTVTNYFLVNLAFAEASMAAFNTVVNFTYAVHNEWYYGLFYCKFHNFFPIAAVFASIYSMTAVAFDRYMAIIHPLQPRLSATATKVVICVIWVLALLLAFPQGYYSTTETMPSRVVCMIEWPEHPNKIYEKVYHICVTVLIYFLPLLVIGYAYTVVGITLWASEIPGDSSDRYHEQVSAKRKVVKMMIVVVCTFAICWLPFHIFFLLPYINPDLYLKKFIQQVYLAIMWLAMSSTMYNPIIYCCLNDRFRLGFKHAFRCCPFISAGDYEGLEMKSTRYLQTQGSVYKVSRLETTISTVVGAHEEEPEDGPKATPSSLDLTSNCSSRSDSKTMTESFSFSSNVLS

Structure (SMILES) | Ki
CNC(=O)NC1CCN(C(C(=O)N(C)CCc2cc(C(F)(F)F)cc(C(F)(F)F)c2)c2ccccc2)CC1 (stereo not drawn) [Example 1, N-[2-(3,5-bis-trifluoromethyl-phenyl)-ethyl]-N-methyl-2-[4-(3-methyl-ureido)-piperidin-1-yl]-2-phenyl-acetamide] | 0.7 nM
CN(CCc1cc(C(F)(F)F)cc(C(F)(F)F)c1)C(=O)[C@H](c1ccccc1)N1CCC(N2CCCOC2=O)CC1 [Example 2, (S)-N-[2-(3,5-bis-trifluoromethyl-phenyl)-ethyl]-N-methyl-2-[4-(2-oxo-[1.3]oxazinan-3-yl)-piperidin-1-yl]-2-phenyl-acetamide] | 1.7 nM
CN(CCc1cc(C(F)(F)F)cc(C(F)(F)F)c1)C(=O)[C@H](c1ccccc1)N1CCC(N2C(=O)COC2=O)CC1 [Example 3] | 0.7 nM
CN(CCc1cc(C(F)(F)F)cc(C(F)(F)F)c1)C(=O)[C@H](c1ccccc1)N1CCC(N2CCC(=O)N(C)C2=O)CC1 [Example 4] | 0.6 nM
CC1CC(=O)N(C)C(=O)N1C1CCN([C@H](C(=O)N(C)CCc2cc(C(F)(F)F)cc(C(F)(F)F)c2)c2ccccc2)CC1 (stereo partly drawn) [Example 5] | 0.6 nM
CN(CCc1cc(C(F)(F)F)cc(C(F)(F)F)c1)C(=O)[C@H](c1ccccc1)N1CCC(N2CCNC2=O)CC1 [Example 6] | 3.5 nM
CN(CCc1cc(C(F)(F)F)cc(C(F)(F)F)c1)C(=O)[C@H](c1ccccc1)N1CCC(NC(=O)Nc2ccccc2)CC1 [Example 7] | 0.8 nM
CC(=O)N1CCN(C2CCN(C(C(=O)NCc3cc(C(F)(F)F)cc(C(F)(F)F)c3)c3ccccc3)CC2)C1=O (stereo not drawn) [Example B-6, reference compound] | 165 nM
O=C(Nc1ccccc1)NC1CCN(C(C(=O)NCc2cc(C(F)(F)F)cc(C(F)(F)F)c2)c2ccccc2)CC1 (stereo not drawn) [Example B-7, reference compound] | 432 nM
